Results: paper PMC6155239, “Targeting PFKFB3 radiosensitizes cancer cells and suppresses homologous recombination” (Nature Communications, 2018)

What was measured:
[1] = target: PFKFB3 (Homo sapiens, UniProt Q16875); assay: ADP-Glo kinase activity assay, PFKFB3; assay type: biochemical
Method: The kinase activity of the bi-functional enzyme was quantified based on the production of ADP and F-2,6-P2 from ATP by ADP-GloTM Kinase Assay (Promega). The assay was performed in two steps; first, after the kinase reaction, an equal volume of ADP-GloTM Reagent was added to terminate the kinase reaction and deplete the remaining ATP. Second, the Kinase Detection Reagent was added to simultaneously convert ADP to ATP and allow the newly synthesized ATP to be measured using a luciferase/luciferin reaction. The light generated was measured using a luminescence counter (1450 MicroBeta TriLux). The assay was performed in white 384-well plates (OptiPlate, 6007299, PerkinElmer) by consecutive additions of a test compound solution (0.1 µL, serial diluted in DMSO from compound DMSO stock solution and dispensed by acoustic dispensing from UV-star 384-well plate 7360153, VWR), enzyme solution (5 µL) and substrate (fructose-6-phosphate (F6P) and adenosine-5′-triphosphate (ATP)) containing solution (5 µL). […] Four reference dose–response curves, one of them being the QC compound, were included and serial diluted as the test compounds. The final concentrations of all reagents per well were 50 mM Tris–HCl at pH 8.0, 10 mM MgCl2, 5 mM NaPi at pH 8.0, 81.48 nM PFKFB3 or 145 nM PFKFB4, 8 µM ATP, 100 µM F6P (acid treated and then neutralized to remove any contaminating F-2,6-P2[34]), 0.005% Tween-20 and 1 mM dithiothreitol. Enzyme, compounds, and controls were pre-incubated at room temperature for 15 min before the addition of substrate solution. The enzymatic reaction was allowed to proceed for 20 min and the reaction was terminated by the addition of ADP-GloTM Reagent (10 µL) to all wells followed by 40 min incubation at room temperature. […] The inhibitory potency or IC50 values of test compounds on the kinase activity of the enzymes were calculated using a four-parameter model (model 205) in XLfit (IDBS ActivityBase XE Runner).

[2] = tested on: intracellular F-2,6-P2 levels; assay: Intracellular F-2,6-P2 quantification (van Schaftingen assay); assay type: cell-based; details: pancreatic, gastric and colon cancer cell lines
Method: Quantification of F-2,6-P2 was performed as described by Van Schaftingen et al.[34]. The assay is based on the potent activation of pyrophosphate-dependent phosphofructokinase-1 (PPi-PFK) from potato tubers by F-2,6-P2. The use of a series of coupled enzymes leads to a consumption of nicotinamide adenine dinucleotide (NADH) that can be followed spectrophotometrically. PANC-1, NUGC-3, SW620, or MIA PaCa-2 cells were seeded at a density of 2.5 × 10^4–3.5 × 10^4 cells per well (96-well, CLS3595, Sigma-Aldrich) and incubated overnight at 37 °C and 5% CO2. […] Plates stored at −20 °C were thawed and the F-2,6-P2 quantification was initiated by transferring 40 µL from each well of the NUNC plate to the corresponding position in a transparent 96-well SpectraPlate-MB (PerkinElmer). In order to ensure that all F-2,6-P2 measured values were within the linear range of response (between 0 and 1 nM final concentration of F-2,6-P2[34]), the same sample volume of an in-house produced F-2,6-P2 standard was included on each plate. […] The coupled enzymatic reaction was allowed to proceed for 45 min at room temperature and the absorbance at 340 nm was continuously measured every 30 s (SpectraMax plate reader, Molecular Devices). The measured absorbance was proportional to the concentration of NADH, which in turn was proportional to the levels of F-2,6-P2 within the linear range. […]

[3] = tested on: 97 kinases of the scanEDGE set; assay: DiscoveRx KINOMEscan scanEDGE panel; assay type: binding; details: 2 µM
[4] = target: T1, ALK (Homo sapiens, UniProt Q9UM73); assay: KINOMEscan; assay type: binding; details: 2000 nM; read-out: Percent Control
T1 construct: purchased DiscoverX (Eurofins) KINOMEscan / scanEDGE, inferred from the naming style
T1 sequence (Q9UM73 19-1620): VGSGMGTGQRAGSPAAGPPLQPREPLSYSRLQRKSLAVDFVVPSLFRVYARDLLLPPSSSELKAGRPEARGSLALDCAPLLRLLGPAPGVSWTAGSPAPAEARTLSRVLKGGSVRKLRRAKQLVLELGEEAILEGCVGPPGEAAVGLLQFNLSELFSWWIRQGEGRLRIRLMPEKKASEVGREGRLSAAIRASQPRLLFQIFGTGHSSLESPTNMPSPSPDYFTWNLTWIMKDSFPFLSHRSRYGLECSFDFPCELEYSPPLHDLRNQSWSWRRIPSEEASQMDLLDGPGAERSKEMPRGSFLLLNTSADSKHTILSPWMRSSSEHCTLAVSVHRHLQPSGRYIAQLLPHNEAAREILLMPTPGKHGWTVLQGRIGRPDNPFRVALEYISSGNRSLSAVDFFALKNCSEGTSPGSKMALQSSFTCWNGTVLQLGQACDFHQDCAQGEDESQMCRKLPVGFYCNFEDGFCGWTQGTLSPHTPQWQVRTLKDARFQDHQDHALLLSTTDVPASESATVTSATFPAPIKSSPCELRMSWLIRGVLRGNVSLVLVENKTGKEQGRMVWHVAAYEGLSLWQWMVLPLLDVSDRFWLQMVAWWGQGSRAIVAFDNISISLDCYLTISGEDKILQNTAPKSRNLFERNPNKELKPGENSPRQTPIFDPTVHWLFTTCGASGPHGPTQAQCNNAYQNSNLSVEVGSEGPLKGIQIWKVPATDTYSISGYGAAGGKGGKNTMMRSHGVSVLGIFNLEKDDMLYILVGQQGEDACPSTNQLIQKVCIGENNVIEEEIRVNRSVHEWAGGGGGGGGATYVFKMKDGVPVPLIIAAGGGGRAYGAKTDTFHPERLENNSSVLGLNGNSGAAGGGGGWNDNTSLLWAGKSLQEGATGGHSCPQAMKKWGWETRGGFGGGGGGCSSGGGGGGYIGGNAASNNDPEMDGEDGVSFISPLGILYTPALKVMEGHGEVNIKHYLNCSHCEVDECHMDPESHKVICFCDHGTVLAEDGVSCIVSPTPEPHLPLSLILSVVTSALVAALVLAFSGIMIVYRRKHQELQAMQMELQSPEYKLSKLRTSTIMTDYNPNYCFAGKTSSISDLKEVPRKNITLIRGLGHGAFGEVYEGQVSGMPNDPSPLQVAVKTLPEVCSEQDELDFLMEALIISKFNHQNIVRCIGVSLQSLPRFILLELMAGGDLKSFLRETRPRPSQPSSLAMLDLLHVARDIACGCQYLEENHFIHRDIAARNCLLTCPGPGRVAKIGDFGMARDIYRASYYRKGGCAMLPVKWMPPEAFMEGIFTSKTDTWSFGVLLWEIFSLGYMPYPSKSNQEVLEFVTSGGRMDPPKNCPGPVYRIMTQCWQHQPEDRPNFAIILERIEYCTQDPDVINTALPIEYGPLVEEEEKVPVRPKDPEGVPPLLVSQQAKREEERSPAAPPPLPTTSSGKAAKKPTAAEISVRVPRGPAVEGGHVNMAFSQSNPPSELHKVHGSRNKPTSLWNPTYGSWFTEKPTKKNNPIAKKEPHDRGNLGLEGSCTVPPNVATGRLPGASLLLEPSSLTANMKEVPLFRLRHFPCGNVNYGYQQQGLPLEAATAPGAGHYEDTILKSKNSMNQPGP

[5] = target: T2, CDK7 (Homo sapiens, UniProt P50613); assay: KINOMEscan; assay type: binding; details: 2000 nM; read-out: Percent Control
T2 construct: purchased DiscoverX (Eurofins) KINOMEscan / scanEDGE, inferred from the naming style
T2 sequence (P50613 whole entry): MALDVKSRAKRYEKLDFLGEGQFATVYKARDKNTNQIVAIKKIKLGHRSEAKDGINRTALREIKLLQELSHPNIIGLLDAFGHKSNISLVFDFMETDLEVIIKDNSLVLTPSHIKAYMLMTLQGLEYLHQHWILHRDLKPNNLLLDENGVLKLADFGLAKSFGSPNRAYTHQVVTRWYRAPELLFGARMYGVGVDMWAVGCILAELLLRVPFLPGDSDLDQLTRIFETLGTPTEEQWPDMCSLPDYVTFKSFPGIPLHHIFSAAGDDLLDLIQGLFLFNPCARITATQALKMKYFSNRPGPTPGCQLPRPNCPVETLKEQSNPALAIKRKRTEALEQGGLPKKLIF

[6] = target: T3, EGFR(L858R) (Homo sapiens, UniProt P00533, L858R); assay: KINOMEscan; assay type: binding; details: 2000 nM; read-out: Percent Control
T3 construct: purchased DiscoverX (Eurofins) KINOMEscan / scanEDGE, inferred from the naming style
T3 sequence (P00533 25-1210 L858R): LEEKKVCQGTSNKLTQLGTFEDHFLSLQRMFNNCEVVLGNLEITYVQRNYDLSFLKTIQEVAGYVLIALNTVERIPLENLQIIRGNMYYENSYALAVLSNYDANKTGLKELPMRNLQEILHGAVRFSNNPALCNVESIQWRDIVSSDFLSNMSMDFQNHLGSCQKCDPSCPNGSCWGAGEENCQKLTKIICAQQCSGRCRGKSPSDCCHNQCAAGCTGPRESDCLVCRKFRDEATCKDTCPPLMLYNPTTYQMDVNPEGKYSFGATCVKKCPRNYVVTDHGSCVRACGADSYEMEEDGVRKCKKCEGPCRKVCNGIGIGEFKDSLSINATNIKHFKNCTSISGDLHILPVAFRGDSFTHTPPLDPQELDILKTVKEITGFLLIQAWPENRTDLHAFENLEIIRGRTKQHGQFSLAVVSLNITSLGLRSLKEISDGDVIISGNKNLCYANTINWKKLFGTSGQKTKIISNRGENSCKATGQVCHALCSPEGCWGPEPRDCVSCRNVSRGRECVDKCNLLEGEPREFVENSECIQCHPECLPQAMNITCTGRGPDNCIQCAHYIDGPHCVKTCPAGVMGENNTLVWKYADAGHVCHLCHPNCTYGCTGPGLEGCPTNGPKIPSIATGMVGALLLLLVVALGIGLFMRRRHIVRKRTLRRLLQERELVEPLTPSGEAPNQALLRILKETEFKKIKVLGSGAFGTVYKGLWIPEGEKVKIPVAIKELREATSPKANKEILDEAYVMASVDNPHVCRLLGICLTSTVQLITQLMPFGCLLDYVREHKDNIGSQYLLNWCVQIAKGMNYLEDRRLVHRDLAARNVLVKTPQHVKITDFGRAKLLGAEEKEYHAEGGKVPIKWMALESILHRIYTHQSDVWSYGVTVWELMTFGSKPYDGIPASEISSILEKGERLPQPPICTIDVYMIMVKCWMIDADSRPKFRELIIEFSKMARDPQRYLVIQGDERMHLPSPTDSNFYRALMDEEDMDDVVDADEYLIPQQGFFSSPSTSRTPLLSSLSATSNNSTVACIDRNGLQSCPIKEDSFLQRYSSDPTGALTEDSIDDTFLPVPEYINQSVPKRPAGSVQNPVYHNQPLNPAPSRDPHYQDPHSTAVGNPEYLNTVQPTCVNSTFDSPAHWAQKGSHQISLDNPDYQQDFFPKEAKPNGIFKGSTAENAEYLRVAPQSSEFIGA

[7] = target: T4, ERBB4 (Homo sapiens, UniProt Q15303); assay: KINOMEscan; assay type: binding; details: 2000 nM; read-out: Percent Control
T4 construct: purchased DiscoverX (Eurofins) KINOMEscan / scanEDGE, inferred from the naming style
T4 sequence (Q15303 26-1308): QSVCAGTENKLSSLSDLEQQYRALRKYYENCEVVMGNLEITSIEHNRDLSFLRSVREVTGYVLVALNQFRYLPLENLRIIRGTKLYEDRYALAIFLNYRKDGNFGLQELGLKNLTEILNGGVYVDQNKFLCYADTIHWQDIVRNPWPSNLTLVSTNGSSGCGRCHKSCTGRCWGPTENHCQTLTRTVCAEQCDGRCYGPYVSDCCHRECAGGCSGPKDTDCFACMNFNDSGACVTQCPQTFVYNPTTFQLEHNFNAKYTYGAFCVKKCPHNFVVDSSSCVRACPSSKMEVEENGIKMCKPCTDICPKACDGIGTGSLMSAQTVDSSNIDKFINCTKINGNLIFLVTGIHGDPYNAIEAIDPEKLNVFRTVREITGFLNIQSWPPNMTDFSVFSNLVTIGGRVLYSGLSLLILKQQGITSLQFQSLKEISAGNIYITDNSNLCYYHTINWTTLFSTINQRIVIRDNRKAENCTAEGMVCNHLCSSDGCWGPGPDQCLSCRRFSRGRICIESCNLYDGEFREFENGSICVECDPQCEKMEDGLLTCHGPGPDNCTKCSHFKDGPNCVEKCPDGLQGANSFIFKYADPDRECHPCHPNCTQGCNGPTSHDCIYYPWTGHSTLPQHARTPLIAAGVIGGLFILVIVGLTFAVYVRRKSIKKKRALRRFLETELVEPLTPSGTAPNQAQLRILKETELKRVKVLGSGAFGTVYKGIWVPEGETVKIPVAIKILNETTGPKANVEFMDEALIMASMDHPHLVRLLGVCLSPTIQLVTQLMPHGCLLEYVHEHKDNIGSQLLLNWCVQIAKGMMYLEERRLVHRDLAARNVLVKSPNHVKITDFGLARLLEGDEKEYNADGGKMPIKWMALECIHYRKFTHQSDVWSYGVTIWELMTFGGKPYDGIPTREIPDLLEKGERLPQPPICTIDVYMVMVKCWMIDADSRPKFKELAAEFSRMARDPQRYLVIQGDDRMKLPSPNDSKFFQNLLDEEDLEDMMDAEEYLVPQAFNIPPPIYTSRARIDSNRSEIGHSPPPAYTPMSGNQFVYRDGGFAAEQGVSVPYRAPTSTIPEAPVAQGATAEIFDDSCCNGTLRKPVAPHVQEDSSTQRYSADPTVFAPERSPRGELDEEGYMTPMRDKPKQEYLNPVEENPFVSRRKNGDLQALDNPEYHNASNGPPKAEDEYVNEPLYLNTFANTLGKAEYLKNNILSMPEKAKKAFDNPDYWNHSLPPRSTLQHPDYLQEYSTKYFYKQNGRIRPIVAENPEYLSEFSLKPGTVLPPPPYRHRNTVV

Chain of PFKFB3 (Q16875 whole entry): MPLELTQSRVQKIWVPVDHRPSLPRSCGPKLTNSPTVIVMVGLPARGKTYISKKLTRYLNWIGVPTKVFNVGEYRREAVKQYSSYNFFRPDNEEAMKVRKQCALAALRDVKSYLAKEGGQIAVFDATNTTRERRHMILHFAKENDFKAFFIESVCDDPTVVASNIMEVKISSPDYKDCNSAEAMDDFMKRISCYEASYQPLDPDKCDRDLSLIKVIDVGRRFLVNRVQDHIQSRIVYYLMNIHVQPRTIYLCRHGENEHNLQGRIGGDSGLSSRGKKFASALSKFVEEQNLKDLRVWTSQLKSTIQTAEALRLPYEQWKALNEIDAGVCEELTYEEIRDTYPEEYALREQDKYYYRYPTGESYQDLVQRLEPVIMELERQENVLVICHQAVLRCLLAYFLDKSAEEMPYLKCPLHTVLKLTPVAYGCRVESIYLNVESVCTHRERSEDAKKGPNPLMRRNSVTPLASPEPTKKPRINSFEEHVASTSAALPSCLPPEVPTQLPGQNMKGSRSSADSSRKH

| inhibition of recombinant PFKFB3 kinase activity (in words) ([1]; in vitro enzymatic assay) | SMILES | IC50 ([1]; ADP-GLO assay) [nM] | potency on intracellular F-2,6-P2 levels (in words) [2] | binding to the 97 targets of the scanEDGE set [3] | remaining binding at 2 µM [4] [%] | remaining binding at 2 µM [5] [%] | remaining binding at 2 µM [6] [%] | remaining binding at 2 µM [7] [%] |
| --- | --- | --- | --- | --- | --- | --- | --- | --- |
| – | O=C(O)c1ccc(NS(=O)(=O)c2cccc(-c3cc(F)ccc3O)c2)cc1O [KAN0438241, 4-{[(5′-Fluoro-2′-hydroxybiphenyl-3-yl)sulfonyl]amino}-2-hydroxybenzoic acid] | 190 | low µM potency | no significant binding | 100 | 93 | 90 | 96 |
| largely inactive | O=C(OCCO)c1ccc(NS(=O)(=O)c2cccc(-c3cc(F)ccc3O)c2)cc1O [KAN0438757, 2-Hydroxyethyl-4-{[(5′-fluoro-2′-hydroxybiphenyl-3-yl)sulfonyl]amino}-2-hydroxybenzoate] | – | sub-µM IC50 values | no significant binding | – | – | – | – |
